Data: ChEMBL document CHEMBL1155965, “Addressing the malaria drug resistance challenge using flow cytometry to discover new antimalarials” (Bioorg Med Chem Lett, 2009)
Blank lines part the entries; values can stand above or below the compound they belong to.

What was measured:
Plasmodium falciparum [1] = test: Antimalarial activity against Plasmodium falciparum W2mef at 10 uM after 48 hrs by hoechst 33342-thiazole orange stain based flow cytometry assay; type: functional
Plasmodium falciparum [2] = test: Antimalarial activity against Plasmodium falciparum W2mef schizont form by hoechst 33342-thiazole orange stain based flow cytometry assay; type: functional, organism-based
Plasmodium falciparum [3] = test: Antimalarial activity against Plasmodium falciparum W2mef ring form by hoechst 33342-thiazole orange stain based flow cytometry assay; type: functional, organism-based
[4] = Cytotoxicity against human erythrocytes assessed as intact cells by propidium iodide stain based flow cytometry; type: cell-based, Erythrocyte; details: read-out: Activity
Plasmodium falciparum [5] = test: Antimalarial activity against Plasmodium falciparum W2mef trophozoite form by hoechst 33342-thiazole orange stain based flow cytometry assay; type: functional, organism-based
[6] = Cytotoxicity against human erythrocytes assessed as change in cell shape by flow cytometry; type: cell-based; details: erythrocyte
[7] = Cytotoxicity against human erythrocytes assessed as change in internal complexity by flow cytometry; type: cell-based; details: erythrocyte
Plasmodium falciparum [8] = test: Antimalarial activity against Plasmodium falciparum W2mef assessed as DNA positive erythrocytes by hoechst 33342-thiazole orange stain based flow cytometry assay; type: functional, organism-based
Plasmodium falciparum [9] = test: microbe, parasite or virus in culture; details: W2mef
Description: Antimalarial activity against Plasmodium falciparum W2mef by hypoxanthine uptake assay

Structure (SMILES): Cn1cnc(C[S+]([O-])Cc2ccc(I)cc2)c1 (centres undefined)
- inhibition at 10 µM (Plasmodium falciparum [1]): 6.31%

Structure (SMILES): Oc1ccc(C(O)C2CCc3ccccc3C2)cc1 (centres undefined)
- inhibition at 10 µM (Plasmodium falciparum [1]): 14.6%

Structure (SMILES): O=S(=O)(c1ccccc1)C(CCCn1ccnc1)c1ccc(I)cc1 (centres undefined)
- inhibition at 10 µM (Plasmodium falciparum [1]): 3.46%

Structure (SMILES): Clc1ccc(C2(c3ccc4noc(-c5cccc(Cl)c5)c4c3)OCCO2)cc1
- inhibition at 10 µM (Plasmodium falciparum [1]): 54.5%

- IC50 (Plasmodium falciparum [2]): 716 nM
- IC50 (Plasmodium falciparum [3]): 409 nM
- IC50 (Plasmodium falciparum [5]): 726 nM
- IC50 (Plasmodium falciparum [8]): 506 nM
Structure (SMILES): Cc1cc(C#N)cc(C)c1Oc1nc(Nc2ccc(C#N)cc2)nc(N)c1Br [ETRAVIRINE]
- viability [4]: > 98.5%
- inhibition at 10 µM (Plasmodium falciparum [1]): 91.7%
- Activity [6]: Non-toxic
- Activity [7]: Non-toxic

Structure (SMILES): COC(=O)c1cn2nc[nH]c(=O)c2c1C
- inhibition at 10 µM (Plasmodium falciparum [1]): 9.62%

Structure (SMILES): CC(C)C1=NN=CC1C1CC2CCC(C1)N2 (centres undefined)
- inhibition at 10 µM (Plasmodium falciparum [1]): 0%

Structure (SMILES): Cc1cc(I)ccc1Nc1c(C(=O)N2CCNCC2)cc2nc[nH]c2c1F
- inhibition at 10 µM (Plasmodium falciparum [1]): 0.25%

Structure (SMILES): COc1cc2ncn(-c3sc(C(N)=O)cc3OCc3ccccc3C(F)(F)F)c2cc1OC
- inhibition at 10 µM (Plasmodium falciparum [1]): 24.6%

Structure (SMILES): O=C(c1ccc(Cl)cc1)c1ccc2[nH]c(=O)cc(-c3cccc(Cl)c3)c2c1
- inhibition at 10 µM (Plasmodium falciparum [1]): 36.1%

Structure (SMILES): Oc1c(F)cc(CN2CCc3ccccc3C2)cc1F
- inhibition at 10 µM (Plasmodium falciparum [1]): 8.47%

Structure (SMILES): Cn1cc(-c2[nH]c3cc(N)cc4c3c2C=NNC4=O)cn1
- inhibition at 10 µM (Plasmodium falciparum [1]): 9.17%

Structure (SMILES): Cc1ccc(-c2nc3c(Br)cc4c(c3[nH]2)C(=O)NC(=O)C4(C)C)cc1[N+](=O)[O-]
- inhibition at 10 µM (Plasmodium falciparum [1]): 11.2%

- IC50 (Plasmodium falciparum [2]): 317 nM
- IC50 (Plasmodium falciparum [3]): 228 nM
- IC50 (Plasmodium falciparum [5]): 620 nM
- IC50 (Plasmodium falciparum [8]): 320 nM
Structure (SMILES): Cc1[nH]c(/C=C2\C(=O)Nc3ccc(S(=O)(=O)N(C)c4cccc(Cl)c4)cc32)c(C)c1C(=O)N1CCN(C)CC1
- inhibition at 10 µM (Plasmodium falciparum [1]): 85.1%

Structure (SMILES): Cc1cc(O)cc(C)c1CN1CCc2ccccc2C1
- inhibition at 10 µM (Plasmodium falciparum [1]): 6.76%

Structure (SMILES): CCN(CC)C(=O)[C@@]1(c2ccccc2)C[C@H]1CNC(=O)O[C@@H]1O[C@H](C(=O)OC)[C@@H](O)[C@H](O)[C@H]1O
- inhibition at 10 µM (Plasmodium falciparum [1]): 3.16%

Structure (SMILES): C[C@@H]1CC[C@H]2[C@@H](C)C(=O)O[C@@H]3O[C@@]4(C)CC[C@@H]1[C@]32OO4 [ARTEMISININ]
- IC50 (Plasmodium falciparum [2]): 8 nM
- IC50 (Plasmodium falciparum [3]): 20 nM
- IC50 (Plasmodium falciparum [9]): 12 nM
- IC50 (Plasmodium falciparum [5]): 7 nM
- IC50 (Plasmodium falciparum [8]): 11 nM

Structure (SMILES): Fc1cccc(-c2nc3ccncc3[nH]2)c1F
- inhibition at 10 µM (Plasmodium falciparum [1]): 14.4%

- IC50 (Plasmodium falciparum [2]): 2000 nM
- IC50 (Plasmodium falciparum [3]): 1080 nM
- IC50 (Plasmodium falciparum [5]): 16600 nM
- IC50 (Plasmodium falciparum [8]): 3770 nM
Structure (SMILES): Cn1cnc(CSCc2ccc(I)cc2)c1
- inhibition at 10 µM (Plasmodium falciparum [1]): 74.9%

- IC50 (Plasmodium falciparum [2]): 376 nM
- IC50 (Plasmodium falciparum [3]): 328 nM
- IC50 (Plasmodium falciparum [5]): 509 nM
- IC50 (Plasmodium falciparum [8]): 384 nM
Structure (SMILES): CNC(=O)c1cc(Oc2ccc(NC(=O)Nc3ccc(Cl)c(C(F)(F)F)c3)cc2)ccn1 [SORAFENIB]
- inhibition at 10 µM (Plasmodium falciparum [1]): 87.5%

Structure (SMILES): O=C(Cc1ccc(O)cc1)N1CCc2ccccc2C1
- inhibition at 10 µM (Plasmodium falciparum [1]): 1.1%

Structure (SMILES): Cn1cnc(CSCc2ccccc2)c1
- inhibition at 10 µM (Plasmodium falciparum [1]): 42.1%

Structure (SMILES): Ic1ccc(CSCc2c[nH]cn2)cc1
- inhibition at 10 µM (Plasmodium falciparum [1]): 37.1%

Structure (SMILES): C/C(O)=C(\C#N)C(=O)Nc1ccc(C(F)(F)F)cc1 [TERIFLUNOMIDE]
- inhibition at 10 µM (Plasmodium falciparum [1]): 4.96%

Structure (SMILES): Cn1cncc1CSCc1ccc(I)cc1
- inhibition at 10 µM (Plasmodium falciparum [1]): 41.9%

Structure (SMILES): O=C(NCCc1c[nH]cn1)/C(Cc1ccccc1)=N\O
- inhibition at 10 µM (Plasmodium falciparum [1]): 2.61%

- IC50 (Plasmodium falciparum [2]): 1210 nM
- IC50 (Plasmodium falciparum [3]): 1200 nM
- IC50 (Plasmodium falciparum [5]): 2000 nM
- IC50 (Plasmodium falciparum [8]): 1100 nM
Structure (SMILES): Cc1cc(/C=C/C#N)cc(C)c1Nc1ccnc(Nc2ccc(C#N)cc2)n1 [RILPIVIRINE]
- inhibition at 10 µM (Plasmodium falciparum [1]): 49.8%

Structure (SMILES): N#Cc1ccc(Nc2nc(O)cc(O)n2)cc1
- inhibition at 10 µM (Plasmodium falciparum [1]): 1.46%

Structure (SMILES): OC(c1cc(C(F)(F)F)nc2c(C(F)(F)F)cccc12)C1CCCCN1 (centres undefined) [MEFLOQUINE]
- IC50 (Plasmodium falciparum [2]): 44 nM
- IC50 (Plasmodium falciparum [3]): 147 nM
- IC50 (Plasmodium falciparum [9]): 142 nM
- IC50 (Plasmodium falciparum [5]): 74 nM
